Laboratory results as given in patent publication EP3928779A1 (Chugai Seiyaku Kabushiki Kaisha, priority 2014, dated 2016).

System: rat small-intestinal brush border membrane vesicles
Experiment: Inhibitory effect on 33PO4 uptake into rat small-intestinal brush border membrane vesicles (rapid filtration method)
Type: biochemical
Settings: 33PO4 uptake into rat small-intestinal BBMVs; test compound 1 µM; reacted for 60 seconds
Outline: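 Uptake of ^33PO4 was measured by rapid filtration and liquid scintillation counting of filter-retained vesicles, after quenching with ice-cold 110 mM NaCl/1 mM KH2PO4/10 mM HEPES pH 7.5. Vesicles were brush border membranes from the upper small intestine of female Wistar rats aged 4–5 weeks.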

Molecule	Rate of uptake inhibition (%) (1 µM)
CN1N(Cc2cccc(F)c2F)C(=O)C(C(=O)Nc2ccc(Cl)cc2-c2cc(C(F)(F)F)ncn2)=C(O)C12CCCC2 [Example 261]	77%
C[C@]12CCCN1N(Cc1cccc(F)c1F)C(=O)C(C(=O)Nc1ccc(C(F)(F)F)cc1-c1cnc(Cl)cn1)=C2O [Example 74]	82%
Cc1cccc(CN2C(=O)C(C(=O)Nc3ccc(C(F)(F)F)cc3-c3cc(C(F)(F)F)ncn3)=C(O)[C@@]3(C)CCCN23)c1 [Example 186]	88%
COCCN(C)CCNc1ccc(CN2C(=O)C(C(=O)Nc3ccc(C(F)(F)F)cc3-c3cc(C(F)(F)F)ncn3)=C(O)C3(CCCC3)N2C)c(F)c1F [Example 417, 7-(2,3-Difluoro-4-((2-((2-methoxyethyl)(methyl)amino)ethyl)amino)benzyl)-10-hydroxy-6-methyl-8-oxo-N-(4-(trifluoromethyl)-2-(6-(trifluoromethyl)pyrimidin-4-yl)phenyl)-6,7-diazaspiro[4.5]dec-9-ene-9-carboxamide]	48%
Cc1cc(NC(=O)C2=C(O)[C@H]3CCCCN3N(Cc3cccc(F)c3)C2=O)c(C(F)(F)F)o1 [Example 15, (4aR)-1-[(3-Fluorophenyl)methyl]-4-hydroxy-N-[5-methyl-2-(trifluoromethyl)furan-3-yl]-2-oxo-5,6,7,8-tetrahydro-4aH-pyrido[1,2-b]pyridazine-3-carboxamide]	42%
CN(CCOc1ccc(CN2C(=O)C(C(=O)Nc3ccc(C(F)(F)F)cc3-c3cc(C(F)(F)F)ncn3)=C(O)C3(CCC3)N2C)c(F)c1F)C1CCOC1 (centres unmarked) [Example 338, 6-[[2,3-Difluoro-4-[2-[methyl(oxolan-3-yl)amino]ethoxy]phenyl]methyl]-9-hydroxy-5-methyl-7-oxo-N-[4-(trifluoromethyl)-2-[6-(trifluoromethyl)pyrimidin-4-yl]phenyl]-5,6-diazaspiro[3.5]non-8-ene-8-carboxamide]	66%
C[C@H]1COC[C@H](C)N1CCOc1ccc(CN2C(=O)C(C(=O)Nc3ccc(C(F)(F)F)cc3-c3cc(C(F)(F)F)ncn3)=C(O)C3(CCC3)N2C)c(F)c1F [Example 343]	68%
COCCN(CCOC)CCOc1ccc(CN2C(=O)C(C(=O)Nc3ccc(C(F)(F)F)cc3-c3cc(C(F)(F)F)ncn3)=C(O)C3(CCC3)N2C)c(F)c1F [Example 348]	31%
(4aR)-1-[(3-Fluorophenyl)methyl]-4-hydroxy-N-[5-methyl-2-(trifluoromethyl)furan-3-yl]-2-oxo-4a-propyl-6,7-dihydro-5H-pyrrolo[1,2-b]pyridazine-3-carboxamide [Example 11]	22%
COC[C@@H]1CCCN1CCOc1ccc(CN2C(=O)C(C(=O)Nc3ccc(C(F)(F)F)cc3-c3cc(C(F)(F)F)ncn3)=C(O)C3(CCCC3)N2C)c(F)c1F [Example 375]	31%
COC1(C)CN(CCOc2ccc(CN3C(=O)C(C(=O)Nc4ccc(C(F)(F)F)cc4-c4cc(C(F)(F)F)ncn4)=C(O)C4(CCC4)N3C)c(F)c2F)C1 [Example 356]	58%
Cc1c(-c2cc(C(F)(F)F)ccc2NC(=O)C2=C(O)C3(CCCC3)N(C)N(Cc3ccc(OCCN4CCOCC4)c(F)c3F)C2=O)ncnc1C(F)(F)F [Example 290]	59%
Cc1c(C#N)ncnc1-c1cc(C(F)(F)F)ccc1NC(=O)C1=C(O)[C@@]2(C)CCCN2N(Cc2cccc(F)c2F)C1=O [Example 24]	76%
C[C@]12CCCN1N(Cc1cc(F)ccc1F)C(=O)C(C(=O)Nc1cc(F)c(Br)c(F)c1)=C2O [Example 193]	82%
Cc1ccccc1CN1C(=O)C(C(=O)Nc2ccc(C(F)(F)F)cc2-c2cc(C(F)(F)F)ncn2)=C(O)[C@@]2(C)CCCN12 [Example 185]	83%
COc1cccc(-c2cc(C(F)(F)F)ccc2NC(=O)C2=C(O)[C@@]3(C)CCCN3N(Cc3ccc(OCc4ccncc4)c(F)c3F)C2=O)c1OC [Example 151]	92%
C[C@]12CCCN1N(Cc1cccc(F)c1)C(=O)C(C(=O)Nc1ccc(C(F)(F)F)cc1-c1ccc(C(F)(F)F)nc1)=C2O [Example 206]	76%
C[C@]12CCCN1N(Cc1cccc(Cl)c1)C(=O)C(C(=O)Nc1cc(F)c(Br)c(F)c1)=C2O [Example 221]	82%
CN1N(Cc2ccc(OCCCCOCCCO)c(F)c2F)C(=O)C(C(=O)Nc2ccc(C(F)(F)F)cc2-c2cc(C(F)(F)F)ncn2)=C(O)C12CCCC2 [Example 399]	42%
CN(C[C@H](O)[C@@H](O)[C@H](O)[C@H](O)CO)C(=O)CCCOc1ccc(CN2C(=O)C(C(=O)Nc3ccc(C(F)(F)F)cc3-c3cc(C(F)(F)F)ncn3)=C(O)C3(CCCC3)N2C)c(F)c1F [Example 418, 7-[[2,3-Difluoro-4-[4-[methyl-[(2S,3R,4R,5R)-2,3,4,5,6-pentahydroxyhexyl]amino]-4-oxobutoxy]phenyl]methyl]-10-hydroxy-6-methyl-8-oxo-N-[4-(trifluoromethyl)-2-[6-(trifluoromethyl)pyrimidin-4-yl]phenyl]-6,7-diazaspiro[4.5]dec-9-ene-9-carboxamide]	29%
CN1N(Cc2cccc(F)c2F)C(=O)C(C(=O)Nc2ccc(C(F)(F)F)cc2-c2ncnc(C#N)c2Cl)=C(O)C1(C)C [Example 312]	74%
CN1CCC(Oc2ccc(CN3C(=O)C(C(=O)Nc4ccc(C(F)(F)F)cc4-c4cc(C(F)(F)F)ncn4)=C(O)C4(CCC4)N3C)c(F)c2F)CC1 [Example 411]	32%
C[C@]12CCCN1N(Cc1cc(F)c(F)cc1F)C(=O)C(C(=O)Nc1cc(F)c(Br)c(F)c1)=C2O [Example 194]	80%
C[C@]12CCCN1N(Cc1ccc(OCCN3CCOCC3)c(F)c1F)C(=O)C(C(=O)Nc1ccc(Cl)cc1-c1ccc(C(F)(F)F)nc1)=C2O [Example 102]	65%
C[C@@H]1COC[C@H](C)N1CCOc1ccc(CN2C(=O)C(C(=O)Nc3ccc(C(F)(F)F)cc3-c3cc(C(F)(F)F)ncn3)=C(O)C3(CCCC3)N2C)c(F)c1F [Example 370]	41%
COc1cccc(-c2cc(C(F)(F)F)ccc2NC(=O)C2=C(O)[C@@]3(C)CCCN3N(Cc3ccc(C#CCOCCOCCOCCO)c(F)c3F)C2=O)c1OC [Example 136]	80%
C[C@]12CCCN1N(Cc1cccc(F)c1F)C(=O)C(C(=O)Nc1ccc(C(F)(F)F)cc1-c1cc(C#N)ncn1)=C2O [Example 100]	69%
C[C@]12CCCN1N(Cc1cccc(OC(F)F)c1)C(=O)C(C(=O)Nc1ccc(C(F)(F)F)cc1-c1ccc(C(F)(F)F)nc1)=C2O [Example 167]	73%
Cc1c(-c2cc(C(F)(F)F)ccc2NC(=O)C2=C(O)C3(CCCCC3)N(C)N(Cc3ccc(OCCN4CCOCC4)c(F)c3F)C2=O)ncnc1C(F)(F)F [Example 296]	17%
